Data: US5925369A, “Bis alkanoyl esters of carnitine having bactericidal, fungicidal and antiprotozoal activity” (priority 1996, dated 1999)
Like-named read-outs stand apart in the source and are kept apart here.

Experiments:
Trichomonas vaginalis = test: MIC on protozoa (Trichomonas vaginalis); assay type: cell-based; details: for MIC: Trichomonas vaginalis
Procedure: Protozoal suspensions are prepared from 24-hour cultures grown at 37° C. and 5% CO2 in DIAMOND T.Y.M. broth supplemented with 10% heat-inactivated FCS.
The suspensions are adjusted, in the same medium, to a final concentration of 2.5×10^5 cells/ml in each well of a 96-well microtiter plate. Substance dilutions (0.3 log) are added to the suspensions in order to have a range of final concentrations from 0.19 to 100 mcg/ml. Microtiters are then incubated at 37° C. and 5% CO2 for 24 hours. MIC is referred to as the minimal concentration inhibiting either protozoa or flagella or undulating membrane motility (Cf. JULIANO C., MARTINOTTI M. G., […] P., In vitro effect of microtubule inhibitors on T. vaginalis, Microbiologia, 8:31-42, 1985. LOVGREN T. and SALMELA I., Invitro sensitivity of T. vaginalis and C. albicans to chemotherapeutic agents, Acta Path. Microbiol. Scand.. 86:155-158, 1978).

Tr. mentagrophytes = test: MIC on dermatophytes; assay type: cell-based; details: Trichophyton mentagrophytes, read-out: Minimal Inhibitory Concentration
Procedure: (§1) Mycelium fragments, micro and macroaleuriospores are harvested from 7-day fungal cultures grown at 30 ° C. in Potato Dextrose agar by washing them with Sabouraud broth and 0.5% Tween 80. After a coarse filtration and washing, the fungal suspension is resuspended in Yeast Nitrogen Base supplemented with asparagine and glucose (YNBs) to yield a final concentration of 1.0×10^5 infective units/ml in a microtiter plate. The substances (0.3 log dilutions in Y.N.B.s.) are added to the fungal suspensions in order to generate a range of final concentrations from 0.19 to 100 mcg/ml. The microtiter plates are then incubated at 30° C. for 96-120 hours.

Microsporum canis = test: MIC on dermatophytes; assay type: cell-based; details: read-out: Minimal Inhibitory Concentration
Procedure: as §1

Tr. quinckeanum = test: MIC on dermatophytes; assay type: cell-based; details: Tr. quinckeanum NCPF 309, lab collection; read-out: Minimal Inhibitory Concentration
Procedure: as §1

Tr. rubrum = test: MIC on dermatophytes; assay type: cell-based; details: Trichophyton rubrum, read-out: Minimal Inhibitory Concentration
Procedure: as §1

Epidermoph. floccosum = test: MIC on dermatophytes; assay type: cell-based; details: read-out: Minimal Inhibitory Concentration
Procedure: as §1

anaerobic bacteria = test: MIC on anaerobic bacteria (all strains); assay type: cell-based; details: for MIC: 3 strains
Procedure: Bacteria from cultures in […].) medium on Petri dishes, grown overnight at 35° C. in an anaerobic jar, were resuspended in Brucella broth. The suspensions were adjusted to 1.0×10^8 cells/ml and distributed (0.2 ml/well) in microtiter plates (96-well U-bottomed plate). At the same time, 0.3 log dilutions of the substances are mixed with W. C. agar medium in four-sectioned Petri dishes, which are then seeded with the bacterial suspension by means of a multipoint inoculator (1.0×10^5 cells/spot). The plates are then incubated at 35° C. for 48 hours in an anaerobic jar) (See J. E. ROSENBLATT, Antimicrobial susceptibility testing of anaerobes, in Antibiotics in laboratory medicine. V. LORIAN Ed., II edition, 6, 159-180, Williams & Wilkins, Baltimora, Md 21202 U.S.A.).

[1] = system: Tricophyton quinckeanum NCPF 309; test: In vivo antiinfective effect on topical mixed infection in mice; set-up: species or system BALB/c mice; key to T. quinckeanum: Not cured animals (fungal growth): +++: confluent fungal growth (from a 1ml skin homogenate); ++: semiconfluent fungal growth (from a 1ml skin homogenate); +: moderate fungal growth (from a 1ml skin homogenate); details: for T. quinckeanum: Cured animals: 5 animals/group
Procedure: Male inbred BALB/c mice (C. RIVER), aged 6 weeks were used (5 animals per group).
The animals were topically infected with pathogenic strains of Tricophyton (Tricophyton quinckeanum NCPF 309) and Staphylococcus (Staphylococcus aureus LC1).
Suspensions of fungal microaleuriospores and bacteria were adjusted to a final concentration of 5.0×10^7 and 1.0×10^7 cells/ml, respectively. Volumes of 0.2 ml of each suspension were applied onto the upper posterior zone of the animals, which had previously been shaved and gently abraded with a scalpel blade until "glistening". Treatment started 30 hours after the inocula by administering 50 mg of each substance in a gel form (1% test article) on the infected skin once a day for 5 consecutive days. Two days following the last treatment, animals were sacrificed and infected tissue samples were collected. Following homogenization and appropriate dilution in medium, tissue samples were plated (in Mycobiotic agar and Mannitol Salt agar for fungi and bacteria, respectively) to selectively assess the growth of the pathogens. Fungal growth is evaluated by means of an arbitrary scale, while bacterial growth is evaluated by determining the CFUs (Colony Forming Units).

[2] = T. vaginalis SS-2, read-out: Minimal Inhibitory Concentration
[3] = T. vaginalis SS-9, read-out: Minimal Inhibitory Concentration
[4] = T. vaginalis SS-20, Metronidazole resistant, read-out: Minimal Inhibitory Concentration
[5] = T. vaginalis SS-22, Metronidazole resistant, read-out: Minimal Inhibitory Concentration
[6] = T. vaginalis, 4 strains, read-out: Mean MIC
[7] = Tr. mentagrophytes IDI D 1027, clinical isolate (impetiginous eczema, chin)
[8] = Tr. mentagrophytes IDI D 1049, clinical isolate
[9] = Tr. mentagrophytes IDI D 1101, clinical isolate (epidermatomycosis, face)
[10] = Tr. mentagrophytes SG 3 I, clinical isolate (Tinea pedis)
[11] = Tr. mentagrophytes SG 4 II, clinical isolate (Tinea cruris)
[12] = Tr. mentagrophytes SG 5 III, clinical isolate (Tinea pedis)
[13] = Tr. mentagrophytes SG 8 II, clinical isolate (Tinea cruris)
[14] = Microsporum canis IDI D 0238, clinical isolate (tricophytosis, right arm; prior Nerisona)
[15] = Microsporum canis IDI D 1011, clinical isolate (eczema, neck; prior Gentalyn and cortisone)
[16] = Microsporum canis IDI D 1123, clinical isolate (epidermophytosis, back; prior Gentalyn)
[17] = Microsporum canis IMM 3868, lab collection
[18] = Tr. rubrum IDI D 0222, clinical isolate (onychomycosis, left and right big toes)
[19] = Tr. rubrum IDI D 0252, clinical isolate (impetigo, left arm; prior Rifocin)
[20] = Tr. rubrum IDI D 0261, clinical isolate (dyshidrotic eczema, right foot)
[21] = Tr. rubrum IDI D 1017, clinical isolate (onychomycosis, right big toe; prior Azolmen)
[22] = Tr. rubrum IDI D 1150, clinical isolate (epidermophytosis; prior Gentalyn)
[23] = Tr. rubrum IDI D 1155, clinical isolate
[24] = Tr. rubrum SG 13 III, clinical isolate (Tinea pedis)
[25] = Epidermoph. floccosum IDI D 0011, clinical isolate (epidermophytosis, foot interdigital)
[26] = Epidermoph. floccosum SG 3 III, clinical isolate
[27] = Epidermoph. floccosum SG 6 II, clinical isolate (Tinea pedis)
[28] = 50 mg/day of 1% gel, topical, 5 days

SMILES: CCCCCCCCCCCOC(=O)C[C@H](C[N+](C)(C)C)OC(=O)CC(C)C [ST 1103, isovaleryl L-carnitine undecyl ester methanesulfonate, reference compound]
- MIC (Trichomonas vaginalis; [2]): 25 mg/L
- MIC (Trichomonas vaginalis; [3]): 25 mg/L
- MIC (Trichomonas vaginalis; [4]): 25 mg/L
- MIC (Trichomonas vaginalis; [5]): 25 mg/L
- MIC (Trichomonas vaginalis; [6]): 25 mg/L
- MIC (Tr. mentagrophytes; [7]): 12.5 mg/L
- MIC (Tr. mentagrophytes; [8]): 12.5 mg/L
- MIC (Tr. mentagrophytes; [9]): 12.5 mg/L
- MIC (Tr. mentagrophytes; [10]): 12.5 mg/L
- MIC (Tr. mentagrophytes; [11]): 12.5 mg/L
- MIC (Tr. mentagrophytes; [12]): 12.5 mg/L
- MIC (Tr. mentagrophytes; [13]): 12.5 mg/L
- MIC (Microsporum canis; [14]): 25 mg/L
- MIC (Microsporum canis; [15]): 12.5 mg/L
- MIC (Microsporum canis; [16]): 12.5 mg/L
- MIC (Microsporum canis; [17]): 12.5 mg/L
- MIC (Tr. quinckeanum): 6.25 mg/L
- MIC (Tr. rubrum; [18]): 12.5 mg/L
- MIC (Tr. rubrum; [19]): 25 mg/L
- MIC (Tr. rubrum; [20]): 12.5 mg/L
- MIC (Tr. rubrum; [21]): 12.5 mg/L
- MIC (Tr. rubrum; [22]): 12.5 mg/L
- MIC (Tr. rubrum; [23]): 3.12 mg/L
- MIC (Tr. rubrum; [24]): 12.5 mg/L
- MIC (Epidermoph. floccosum; [25]): 12.5 mg/L
- MIC (Epidermoph. floccosum; [26]): 25 mg/L
- MIC (Epidermoph. floccosum; [27]): 12.5 mg/L
- MIC (anaerobic bacteria): 11.4 mg/L
- T. quinckeanum: Not cured animals (fungal growth) [1, 28]: +
- T. quinckeanum: Cured animals [1, 28]: 80%

SMILES: CCCCCCCCCCC(=O)O[C@H](CC(=O)OCc1ccc(COC(=O)C[C@H](C[N+](C)(C)C)OC(=O)CCCCCCCCCC)cc1)C[N+](C)(C)C [ST 1226, bis(undecanoyl L-carnitine chloride)p-xylilene diester]
- greater (fold) activity than ST 1103 (Trichomonas vaginalis; T. vaginalis, ST 1226 vs ST 1103): 2 fold
- MIC (Trichomonas vaginalis; [2]): 12.5 mg/L
- MIC (Trichomonas vaginalis; [3]): 12.5 mg/L
- MIC (Trichomonas vaginalis; [4]): 12.5 mg/L
- MIC (Trichomonas vaginalis; [5]): 12.5 mg/L
- MIC (Trichomonas vaginalis; [6]): 12.5 mg/L
- MIC (Tr. mentagrophytes; [7]): 3.12 mg/L
- MIC (Tr. mentagrophytes; [8]): 1.56 mg/L
- MIC (Tr. mentagrophytes; [9]): 1.56 mg/L
- MIC (Tr. mentagrophytes; [10]): 1.56 mg/L
- MIC (Tr. mentagrophytes; [11]): 1.56 mg/L
- MIC (Tr. mentagrophytes; [12]): 3.12 mg/L
- MIC (Tr. mentagrophytes; [13]): 1.56 mg/L
- MIC (Microsporum canis; [14]): 12.5 mg/L
- MIC (Microsporum canis; [15]): 3.12 mg/L
- MIC (Microsporum canis; [16]): 1.56 mg/L
- MIC (Microsporum canis; [17]): 1.56 mg/L
- MIC (Tr. quinckeanum): 1.56 mg/L
- MIC (Tr. rubrum; [18]): 1.56 mg/L
- MIC (Tr. rubrum; [19]): 1.56 mg/L
- MIC (Tr. rubrum; [20]): 1.56 mg/L
- MIC (Tr. rubrum; [21]): 1.56 mg/L
- MIC (Tr. rubrum; [22]): 1.56 mg/L
- MIC (Tr. rubrum; [23]): 1.56 mg/L
- MIC (Tr. rubrum; [24]): 1.56 mg/L
- MIC (Epidermoph. floccosum; [25]): 12.5 mg/L
- MIC (Epidermoph. floccosum; [26]): 6.25 mg/L
- MIC (Epidermoph. floccosum; [27]): 6.25 mg/L
- mean MIC value compared with ST 1103 (anaerobic bacteria): smaller than ST 1103
- MIC (anaerobic bacteria): 8.33 mg/L
- T. quinckeanum: Cured animals [1, 28]: 100%
- antifungal activity compared with ST 1103 ([1]; mixed topical infection): greater antinfungal activity than ST 1103
